Where two headings read alike, the source gives them in different places.
How the values were obtained:
Experiment in all cases: Luciferase assay, sulfur compounds
Assay type in all cases: cell-based
consensus OR6B3 = target: T1, consensus OR6B3 (Homo sapiens, UniProt Q8NGW1, A219G/C161Y/C234R/F239S/F305L/G10S/I281L/L135I/L142V/M157V/M215V/P138T/Q89R/R8K/S64G/T78I/V136M/V15L/V166A/V250I)
T1 construct: expressed in transfected cells; host or cells: HEK293
T1 sequence (Q8NGW1 with tags, fused parts or gaps R8K/G10S/V15L/S64G/T78I/Q89R/L135I/V136M/P138T/L142V/M157V/C161Y/V166A/M215V/A219G/C234R/F239S/V250I/I281L/F305L): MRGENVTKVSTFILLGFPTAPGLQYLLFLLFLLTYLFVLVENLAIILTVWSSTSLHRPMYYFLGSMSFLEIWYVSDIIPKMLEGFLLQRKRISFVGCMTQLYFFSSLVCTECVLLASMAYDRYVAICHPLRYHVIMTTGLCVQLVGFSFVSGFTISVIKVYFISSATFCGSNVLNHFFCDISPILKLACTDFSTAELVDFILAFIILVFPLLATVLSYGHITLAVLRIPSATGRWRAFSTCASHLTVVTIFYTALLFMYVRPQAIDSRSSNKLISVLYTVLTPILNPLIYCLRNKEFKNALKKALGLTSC
Description: (§1) A reaction solution as to each consensus olfactory receptor prepared in Examples described above was prepared according to the composition shown in Table 4, left standing for 20 minutes in a clean bench, and then added to each well of a 96-well plate (Becton, Dickinson and Company). The original olfactory receptor was used as to OR4S2. Composition shown in Table 20 was used as to OR11H2 and OR4E2. Subsequently, 100 μL of HEK293 cells suspended in DMEM (Nacalai Tesque, Inc.) was inoculated at 2×10^5 cells/cm^2 to each well, and cultured for 24 hours in an incubator kept at 37° C. and 5% CO2. Cells expressing no olfactory receptor (Mock) were provided as a control.
(§2) The medium was removed from the cultures prepared in 1), and 75 μL of a test substance solution (methyl mercaptan (MeSH) (CAS: 74-93-1, Tokyo Chemical Industry Co., Ltd.), dimethyl sulfide (DMS) (CAS: 75-18-3, FUJIFILM Wako Pure Chemical Corp.), dimethyl disulfide (DMDS) (CAS: 624-92-0, Tokyo Chemical Industry Co., Ltd.), concentration range: 0 μM, 1 μM, 3 μM, 10 μM, 30 μM, 100 μM, and 300 μM, or dimethyl trisulfide (DMTS) (CAS: 3658-80-8, Tokyo Chemical Industry Co., Ltd.), concentration range: 0 μM, 0.1 μM, 0.3 μM, 1 μM, 3 μM, 10 μM, and 30 μM) prepared with a fresh medium was added thereto. Under a copper ion addition condition, the test substance solution was adjusted to contain 30 μM copper(II) chloride (FUJIFILM Wako Pure Chemical Corp.) in addition to the odorant. The cells were cultured for 4 hours in a CO2 incubator and the luciferase gene was expressed sufficiently in the cells. Luciferase activity was measured using Dual-Glo™ luciferase assay system (Promega Corp.) in accordance with the operation manual of the product. A luminescence value derived from firefly luciferase induced by test substance stimulation in each well of the 96-well plate was divided by a luminescence value derived from Renilla luciferase to calculate a value (fluc/hRluc) as a signal, which was then used in analysis. The signal under each transfection condition was normalized with the signal value (fluc/hRluc) under an odorant stimulation-free condition defined as 0% and the signal value (fluc/hRluc) by stimulation with 10 μM forskolin defined as 100%, and used as a response (%) in analysis.

[1] = target: T2, OR4S2 (original olfactory receptor) (Homo sapiens, UniProt Q8NH73); details: for dose dependence of the response of OR4S2 / response of OR4S2: in the presence of a copper ion
T2 construct: expressed in transfected cells; host or cells: HEK293
T2 sequence (Q8NH73 1-311): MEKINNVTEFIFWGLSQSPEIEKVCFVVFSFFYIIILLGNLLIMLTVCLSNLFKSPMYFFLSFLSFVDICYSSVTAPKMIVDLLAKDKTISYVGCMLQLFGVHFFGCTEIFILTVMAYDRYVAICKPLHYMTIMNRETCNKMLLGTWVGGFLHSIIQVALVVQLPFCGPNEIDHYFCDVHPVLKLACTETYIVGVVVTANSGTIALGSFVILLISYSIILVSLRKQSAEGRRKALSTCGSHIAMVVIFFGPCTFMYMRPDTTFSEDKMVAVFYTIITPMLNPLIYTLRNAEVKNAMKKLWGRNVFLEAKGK
Description: as §1, §2

consensus OR2L13 = target: T3, consensus OR2L13 (Homo sapiens, UniProt Q8N349, C217Y/C28L/D174N/F161Y/F208L/F25L/F309S/G145I/H228R/H49R/H6Q/I211L/I240C/I248T/I24L/L123V/L17F/L185P/R301T/S128P/S215A/T115A/T149I/T189M/Y130H/Y82F); details: in the presence of a copper ion
T3 construct: Flag (N); Rho tag (N); expressed in transfected cells; host or cells: HEK293
T3 sequence (Q8N349 1-312 H6Q/L17F/I24L/F25L/C28L/H49R/Y82F/T115A/L123V/S128P/Y130H/G145I/T149I/F161Y/D174N/L185P/T189M/F208L/I211L/S215A/C217Y/H228R/I240C/I248T/R301T/F309S): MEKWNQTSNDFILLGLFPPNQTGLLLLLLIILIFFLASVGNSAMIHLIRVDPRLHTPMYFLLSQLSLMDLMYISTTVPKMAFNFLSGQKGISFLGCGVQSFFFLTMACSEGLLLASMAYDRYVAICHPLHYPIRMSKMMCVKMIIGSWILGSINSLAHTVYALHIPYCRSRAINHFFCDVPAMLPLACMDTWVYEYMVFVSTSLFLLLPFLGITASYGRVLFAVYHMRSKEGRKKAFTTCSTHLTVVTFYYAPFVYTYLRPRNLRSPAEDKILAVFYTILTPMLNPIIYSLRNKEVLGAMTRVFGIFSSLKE
Description: as §1, §2

consensus OR12D3 = target: T4, consensus OR12D3 (Homo sapiens, UniProt Q9UGF7, A145V/C216Y/C85S/G168H/G17S/G27V/H163R/I149T/M273V/M276I/M298L/M46I/M7V/S165N/S188G/S42A/S70C/S86T/V219I/V48I/V84L/Y177C); details: in the presence of a copper ion
T4 construct: expressed in transfected cells; host or cells: HEK293
T4 sequence (Q9UGF7 1-315 M7V/G17S/G27V/S42A/M46I/V48I/S70C/V84L/C85S/S86T/A145V/I149T/H163R/S165N/G168H/Y177C/S188G/C216Y/V219I/M273V/M276I/M298L): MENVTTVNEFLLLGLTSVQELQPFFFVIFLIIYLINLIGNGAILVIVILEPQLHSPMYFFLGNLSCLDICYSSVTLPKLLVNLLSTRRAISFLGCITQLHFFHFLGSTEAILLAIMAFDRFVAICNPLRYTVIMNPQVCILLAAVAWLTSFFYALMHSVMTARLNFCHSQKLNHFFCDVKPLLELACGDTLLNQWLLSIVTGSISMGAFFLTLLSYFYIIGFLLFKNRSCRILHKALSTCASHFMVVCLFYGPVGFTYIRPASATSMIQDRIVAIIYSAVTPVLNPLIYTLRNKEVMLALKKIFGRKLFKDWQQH
Description: as §1, §2

[2] = in the presence of a copper ion

Compound	EC50 (consensus OR6B3)	dose dependence of the response of consensus OR6B3 (consensus OR6B3; [2])	response of consensus OR6B3 (consensus OR6B3; [2])	EC50 [1]	dose dependence of the response of OR4S2 [1]	response of OR4S2 [1]	response of consensus OR2L13 (consensus OR2L13)	response of consensus OR12D3 (consensus OR12D3)	EC50 ([1]; OR4S2 (original), 30 μM CuCl2, read-out: EC50(μM) with 30 μM CuCl2)
CSSC [dimethyl disulfide]	1600 µM	dose-dependent response	responded	530 µM	dose-dependent response	responded	responded	responded	
CSSSC [dimethyl trisulfide]			responded		dose-dependent response	responded	responded	responded	28 µM
CS [methyl mercaptan]			responded			responded	responded	responded	
